Patent publication US4677100A, “Cephalosporin derivatives” (Banyu Pharmaceutical Co., Ltd., priority 1984, dated 1987)
Values after ≈ are worked out from the molar mass of the structure shown.

Columns and labels:
P. maltophilia IID 1275 = experiment: MIC, agar plate dilution method; assay type: cell-based, Pseudomonas maltophilia; details: for antibacterial activity relative to the compound of Reference Example: Pseudomonas maltophilia resistant to all cephalosporins; for MIC: Stenotrophomonas maltophilia, IID1275, P. maltophilia IID 1275, 10^6 CFU/ml, Sensitivity Disk Agar, read-out: Minimum Inhibitory Concentration
Procedure: (§1) The minimum inhibitory concentrations (MIC: μg/ml) of the compounds of the present invention against various microorganisms were measured by an agar plate dilution method (inoculum size: 10^6 CFU/ml) by using Sensitivity Disk Agar (Nissui) in comparison with Cefotaxime and Ceftazidime as comparative compounds.

[1] = tested on: Gram-positive bacteria and Gram-negative bacteria; experiment: antibacterial activity, general statement; assay type: cell-based; details: sensitive and resistant bacteria
Procedure: as §1

P. cepacia 23 = experiment: MIC, agar plate dilution method; assay type: cell-based, Pseudomonas cepacia; details: for MIC: Burkholderia cepacia, P. cepacia 23, 10^6 CFU/ml, Sensitivity Disk Agar, read-out: Minimum Inhibitory Concentration; for antibacterial activity relative to the compound of Reference Example: Pseudomonas cepacia 23
Procedure: as §1

P. aeruginosa AKR17 = experiment: MIC, agar plate dilution method; assay type: cell-based, Pseudomonas aeruginosa; details: for antibacterial activity relative to the compound of Reference Example: Pseudomonas aeruginosa AKR-17, resistant to all cephalosporins including Ceftazidime; for MIC: Pseudomonas aeruginosa, P. aeruginosa AKR17, 10^6 CFU/ml, Sensitivity Disk Agar, read-out: Minimum Inhibitory Concentration
Procedure: as §1

P. aeruginosa AK109 = experiment: MIC, agar plate dilution method; assay type: cell-based, Pseudomonas aeruginosa; details: for antibacterial activity relative to the compound of Reference Example: Pseudomonas aeruginosa AK109; for MIC: Pseudomonas aeruginosa, P. aeruginosa AK109, 10^6 CFU/ml, Sensitivity Disk Agar, read-out: Minimum Inhibitory Concentration
Procedure: as §1

S. marcescens No. 16-2 = experiment: MIC, agar plate dilution method; assay type: cell-based; details: Serratia marcescens, NO.162; S. marcescens No. 16-2; 10^6 CFU/ml; Sensitivity Disk Agar; read-out: Minimum Inhibitory Concentration
Procedure: as §1

P. vulgaris No. 33 = experiment: MIC, agar plate dilution method; assay type: cell-based; details: Proteus vulgaris; P. vulgaris No. 33; 10^6 CFU/ml; Sensitivity Disk Agar; read-out: Minimum Inhibitory Concentration
Procedure: as §1

P. vulgaris OB1043 = experiment: MIC, agar plate dilution method; assay type: cell-based; details: Proteus vulgaris; P. vulgaris OB1043; 10^6 CFU/ml; Sensitivity Disk Agar; read-out: Minimum Inhibitory Concentration
Procedure: as §1

E. coli ML1410/Rte16 = experiment: MIC, agar plate dilution method; assay type: cell-based; details: Escherichia coli, ML1410/RTE16, read-out: Minimum Inhibitory Concentration
Procedure: as §1

C. freundii No. 7 = experiment: MIC, agar plate dilution method; assay type: cell-based; details: Citrobacter freundii; C. freundii No. 7; 10^6 CFU/ml; Sensitivity Disk Agar; read-out: Minimum Inhibitory Concentration
Procedure: as §1

E. coli NIHJJC-2 = experiment: MIC, agar plate dilution method; assay type: cell-based; details: Escherichia coli, NIHJJC2; E. coli NIHJJC-2; 10^6 CFU/ml; Sensitivity Disk Agar; read-out: Minimum Inhibitory Concentration
Procedure: as §1

E. coli W3630/Rms213 = experiment: MIC, agar plate dilution method; assay type: cell-based; details: Escherichia coli, W3630/RMS213, read-out: Minimum Inhibitory Concentration
Procedure: as §1

S. aureus JS-1 = experiment: MIC, agar plate dilution method; assay type: cell-based; details: Staphylococcus aureus, JS1; S. aureus JS-1; 10^6 CFU/ml; Sensitivity Disk Agar; read-out: Minimum Inhibitory Concentration
Procedure: as §1

P. mirabilis JY10 = experiment: MIC, agar plate dilution method; assay type: cell-based; details: Proteus mirabilis; P. mirabilis JY10; 10^6 CFU/ml; Sensitivity Disk Agar; read-out: Minimum Inhibitory Concentration
Procedure: as §1

E. coli CSH = experiment: MIC, agar plate dilution method; assay type: cell-based; details: Escherichia coli, read-out: Minimum Inhibitory Concentration
Procedure: as §1

K. pneumoniae No. 42 = experiment: MIC, agar plate dilution method; assay type: cell-based; details: Klebsiella pneumoniae; K. pneumoniae No. 42; 10^6 CFU/ml; Sensitivity Disk Agar; read-out: Minimum Inhibitory Concentration
Procedure: as §1

A. calcoaceticus No. 14 = experiment: MIC, agar plate dilution method; assay type: cell-based; details: Acinetobacter calcoaceticus; for MIC: A. calcoaceticus No. 14, 10^6 CFU/ml, Sensitivity Disk Agar, read-out: Minimum Inhibitory Concentration
Procedure: as §1

E. cloaceae Nek 39 = experiment: MIC, agar plate dilution method; assay type: cell-based; details: E. cloaceae Nek 39; 10^6 CFU/ml; Sensitivity Disk Agar; read-out: Minimum Inhibitory Concentration
Procedure: as §1

E. coli C/Rms149 = experiment: MIC, agar plate dilution method; assay type: cell-based; details: Escherichia coli, read-out: Minimum Inhibitory Concentration
Procedure: as §1

E. coli W3630/Rms212 = experiment: MIC, agar plate dilution method; assay type: cell-based; details: Escherichia coli, W3630/RMS212, read-out: Minimum Inhibitory Concentration
Procedure: as §1

E. coli CSH2 = experiment: MIC, agar plate dilution method; assay type: cell-based; details: Escherichia coli, 10^6 CFU/ml, Sensitivity Disk Agar, read-out: Minimum Inhibitory Concentration
Procedure: as §1

S. aureus NIHJJC-1 = experiment: MIC, agar plate dilution method; assay type: cell-based; details: Staphylococcus aureus, NIHJJC1; S. aureus NIHJJC-1; 10^6 CFU/ml; Sensitivity Disk Agar; read-out: Minimum Inhibitory Concentration
Procedure: as §1

Row | Compound | antibacterial activity relative to the compound of Reference Example (P. maltophilia IID 1275) | MIC (P. maltophilia IID 1275) [µg/mL] | antibacterial activity (in words) [1] | MIC (P. cepacia 23) [µg/mL] | antibacterial activity relative to the compound of Reference Example (P. cepacia 23) | antibacterial activity relative to the compound of Reference Example (P. aeruginosa AKR17) | MIC (P. aeruginosa AKR17) [µg/mL] | antibacterial activity relative to the compound of Reference Example (P. aeruginosa AK109) | MIC (P. aeruginosa AK109) [µg/mL] | MIC (S. marcescens No. 16-2) [µg/mL] | MIC (P. vulgaris No. 33) [µg/mL] | MIC (P. vulgaris OB1043) [µg/mL] | MIC (E. coli ML1410/Rte16) [µg/mL] | MIC (C. freundii No. 7) [µg/mL] | MIC (E. coli NIHJJC-2) [µg/mL] | MIC (E. coli W3630/Rms213) [µg/mL] | MIC (S. aureus JS-1) [µg/mL] | MIC (P. mirabilis JY10) [µg/mL] | MIC (E. coli CSH) [µg/mL] | MIC (K. pneumoniae No. 42) [µg/mL] | also measured
1 | CC(C)(ON=C(C(=O)NC1C(=O)N2C(C(=O)[O-])=C(C[N+]3(C)Cc4cc(O)c(O)cc4C3)CSC12)c1csc(N)n1)C(=O)O (stereo not drawn) [Ex. 7-E, 7-[(Z)-2-(2-aminothiazol-4-yl)-2-(1-carboxy-1-methylethoxyimino)acetamido]-3-(5,6-dihydroxy-methyl-2-methyl-2-isoindolinium)methyl-3-cephem-4-carboxylate] | at least twice as strong | 3.12 (≈ 4.93 µM) | particularly strong antibacterial activities | ≤ 0.05 | at least 32 times | at least 32 times | ≤ 0.05 | at least 16 times | ≤ 0.05 | 0.39 (≈ 0.616 µM) | 0.2 (≈ 0.316 µM) | 0.1 (≈ 0.158 µM) | ≤ 0.05 | 0.78 (≈ 1.23 µM) | ≤ 0.05 | ≤ 0.05 | > 25 | 0.1 (≈ 0.158 µM) | 0.1 (≈ 0.158 µM) | ≤ 0.05 | antibacterial activity relative to the compound of Reference Example (A. calcoaceticus No. 14): at least 32 times; MIC (A. calcoaceticus No. 14): 0.1 µg/mL (≈ 0.158 µM); MIC (E. cloaceae Nek 39): ≤ 0.05 µg/mL; MIC (E. coli C/Rms149): ≤ 0.05 µg/mL; MIC (E. coli W3630/Rms212): ≤ 0.05 µg/mL; MIC (E. coli CSH2): ≤ 0.05 µg/mL; MIC (S. aureus NIHJJC-1): 25 µg/mL (≈ 39.5 µM)
2 | C[N+]1(CC2=C(C(=O)[O-])N3C(=O)C(NC(=O)C(=NOCC(=O)O)c4csc(N)n4)C3SC2)Cc2cc(O)c(O)cc2C1 (stereo not drawn) [Ex. 8-E, 7-[(Z)-2-(2-aminothiazol-4-yl)-2-carboxymethoxyimino)acetamido]-3-(5,6-dihydroxy-2-methyl-2-isoindolinium)methyl-3-cephem-4-carboxylate] | at least twice as strong | 6.25 (≈ 10.3 µM) | particularly strong antibacterial activities | ≤ 0.05 | at least 32 times | at least 32 times | 0.2 (≈ 0.331 µM) | at least 16 times | ≤ 0.05 | 0.78 (≈ 1.29 µM) | 0.1 (≈ 0.165 µM) | 0.2 (≈ 0.331 µM) | ≤ 0.05 | 0.78 (≈ 1.29 µM) | ≤ 0.05 | ≤ 0.05 | > 25 | 0.2 (≈ 0.331 µM) | 0.1 (≈ 0.165 µM) | ≤ 0.05 | antibacterial activity relative to the compound of Reference Example (A. calcoaceticus No. 14): at least 32 times; MIC (A. calcoaceticus No. 14): ≤ 0.05 µg/mL; MIC (E. cloaceae Nek 39): ≤ 0.05 µg/mL; MIC (E. coli C/Rms149): ≤ 0.05 µg/mL; MIC (E. coli W3630/Rms212): ≤ 0.05 µg/mL; MIC (E. coli CSH2): ≤ 0.05 µg/mL; MIC (S. aureus NIHJJC-1): 12.5 µg/mL (≈ 20.7 µM)
3 | CC(C)ON=C(C(=O)NC1C(=O)N2C(C(=O)[O-])=C(C[N+]3(C)Cc4cc(O)c(O)cc4C3)CSC12)c1csc(N)n1 (stereo not drawn) [Ex. 9-C, 7-[(Z)-2-(2-aminothiazol-4-yl)-2-isopropoxyiminoacetamido]-3-(5,6-dihydroxy-2-methyl-2-isoindolinium) methyl-3-cephem-4-carboxylate] | at least twice as strong | 3.12 (≈ 5.3 µM) | particularly strong antibacterial activities | ≤ 0.05 | at least 32 times | at least 32 times | 0.39 (≈ 0.663 µM) | at least 16 times | ≤ 0.05 | 0.78 (≈ 1.33 µM) | 0.1 (≈ 0.17 µM) | 0.2 (≈ 0.34 µM) | ≤ 0.05 | 3.12 (≈ 5.3 µM) | ≤ 0.05 | ≤ 0.05 | 12.5 (≈ 21.2 µM) | 0.1 (≈ 0.17 µM) | 0.1 (≈ 0.17 µM) | 0.1 (≈ 0.17 µM) | antibacterial activity relative to the compound of Reference Example (A. calcoaceticus No. 14): at least 32 times; MIC (A. calcoaceticus No. 14): 0.2 µg/mL (≈ 0.34 µM); MIC (E. cloaceae Nek 39): ≤ 0.05 µg/mL; MIC (E. coli C/Rms149): ≤ 0.05 µg/mL; MIC (E. coli W3630/Rms212): ≤ 0.05 µg/mL; MIC (E. coli CSH2): ≤ 0.05 µg/mL; MIC (S. aureus NIHJJC-1): 6.25 µg/mL (≈ 10.6 µM)
4 | C[N+]1(CC2=C(C(=O)[O-])N3C(=O)C(NC(=O)C(=NOC4(C(=O)O)CC4)c4csc(N)n4)C3SC2)Cc2cc(O)c(O)cc2C1 (stereo not drawn) [Ex. 10-E, 7-[(Z)-2-(2-aminothiazol-4-yl)-2-(1-carboxy-1-cyclopropoxyimino)acetamido]-3-(5,6-dihydroxy-2-methyl-2-isoindolinium)methyl-3-cephem-4-carboxylate] | at least twice as strong | 3.12 (≈ 4.95 µM) | particularly strong antibacterial activities | ≤ 0.05 | at least 32 times | at least 32 times | 0.1 (≈ 0.159 µM) | at least 16 times | ≤ 0.05 | 0.39 (≈ 0.618 µM) | ≤ 0.05 | ≤ 0.05 | ≤ 0.05 | 1.56 (≈ 2.47 µM) | ≤ 0.05 | ≤ 0.05 | > 25 | ≤ 0.05 | ≤ 0.05 | 0.1 (≈ 0.159 µM) | antibacterial activity relative to the compound of Reference Example (A. calcoaceticus No. 14): at least 32 times; MIC (A. calcoaceticus No. 14): 0.2 µg/mL (≈ 0.317 µM); MIC (E. cloaceae Nek 39): ≤ 0.05 µg/mL; MIC (E. coli C/Rms149): ≤ 0.05 µg/mL; MIC (E. coli W3630/Rms212): ≤ 0.05 µg/mL; MIC (E. coli CSH2): ≤ 0.05 µg/mL; MIC (S. aureus NIHJJC-1): 25 µg/mL (≈ 39.6 µM)
5 | C[N+]1(CC2=C(C(=O)[O-])N3C(=O)C(NC(=O)C(=NOC4(C(=O)O)CCCC4)c4csc(N)n4)C3SC2)Cc2cc(O)c(O)cc2C1 (stereo not drawn) [Ex. 12-C, 7-[(Z)-2-(2-aminothiazol-4-yl)-2-(1-carboxy-1-cyclopentyloxyimino)acetamido]-3-(5,6-dihydroxy-2-methyl-2-isoindolinium)methyl-3-cephem-4-carbcxylate] | at least twice as strong | 6.25 (≈ 9.49 µM) | particularly strong antibacterial activities | ≤ 0.05 | at least 32 times | at least 32 times | 0.1 (≈ 0.152 µM) | at least 16 times | ≤ 0.05 | 0.39 (≈ 0.592 µM) | 0.1 (≈ 0.152 µM) | ≤ 0.05 | ≤ 0.05 | 1.56 (≈ 2.37 µM) | ≤ 0.05 | ≤ 0.05 | > 25 | ≤ 0.05 | 0.1 (≈ 0.152 µM) | 0.1 (≈ 0.152 µM) | antibacterial activity relative to the compound of Reference Example (A. calcoaceticus No. 14): at least 32 times; MIC (A. calcoaceticus No. 14): 0.2 µg/mL (≈ 0.304 µM); MIC (E. cloaceae Nek 39): 0.1 µg/mL (≈ 0.152 µM); MIC (E. coli C/Rms149): ≤ 0.05 µg/mL; MIC (E. coli W3630/Rms212): ≤ 0.05 µg/mL; MIC (E. coli CSH2): 0.1 µg/mL (≈ 0.152 µM); MIC (S. aureus NIHJJC-1): 25 µg/mL (≈ 38 µM)
